Reference: the Kinase Knowledgebase extract (Sharma et al. 2016)
Values joined by “and” are separate entries in the source; they are usually repeats but may differ in a detail not shown here. Identical values can stand only once.

What was measured:
PIK3CB (Human) [1] = target: PIK3CB (Human) (UniProt P42338); test: Cell-Based Assay; details: rat-1
PIK3CA (human) [2] = target: PIK3CA (human) (UniProt P42336); test: Cell-Based Assay; details: rat-1
PIK3CD (Human) [3] = target: PIK3CD (Human) (UniProt O00329); test: Cell-Based Assay; details: rat-1
[4] = target: PIK3CA (human), P42336 [H1047R]; test: Cell-Based Assay; details: detroit562
PIK3CB (Human) [5] = target: PIK3CB (Human) (UniProt P42338); test: Enzyme Assay
PIK3CA (human) [6] = target: PIK3CA (human) (UniProt P42336); test: Enzyme Assay
PIK3CG (human) = PIK3CG (human) (UniProt P48736); test: Enzyme Assay
PIK3CD (Human) [7] = target: PIK3CD (Human) (UniProt O00329); test: Enzyme Assay

Sequence of PIK3CB (Human) (P42338 whole entry, looked up): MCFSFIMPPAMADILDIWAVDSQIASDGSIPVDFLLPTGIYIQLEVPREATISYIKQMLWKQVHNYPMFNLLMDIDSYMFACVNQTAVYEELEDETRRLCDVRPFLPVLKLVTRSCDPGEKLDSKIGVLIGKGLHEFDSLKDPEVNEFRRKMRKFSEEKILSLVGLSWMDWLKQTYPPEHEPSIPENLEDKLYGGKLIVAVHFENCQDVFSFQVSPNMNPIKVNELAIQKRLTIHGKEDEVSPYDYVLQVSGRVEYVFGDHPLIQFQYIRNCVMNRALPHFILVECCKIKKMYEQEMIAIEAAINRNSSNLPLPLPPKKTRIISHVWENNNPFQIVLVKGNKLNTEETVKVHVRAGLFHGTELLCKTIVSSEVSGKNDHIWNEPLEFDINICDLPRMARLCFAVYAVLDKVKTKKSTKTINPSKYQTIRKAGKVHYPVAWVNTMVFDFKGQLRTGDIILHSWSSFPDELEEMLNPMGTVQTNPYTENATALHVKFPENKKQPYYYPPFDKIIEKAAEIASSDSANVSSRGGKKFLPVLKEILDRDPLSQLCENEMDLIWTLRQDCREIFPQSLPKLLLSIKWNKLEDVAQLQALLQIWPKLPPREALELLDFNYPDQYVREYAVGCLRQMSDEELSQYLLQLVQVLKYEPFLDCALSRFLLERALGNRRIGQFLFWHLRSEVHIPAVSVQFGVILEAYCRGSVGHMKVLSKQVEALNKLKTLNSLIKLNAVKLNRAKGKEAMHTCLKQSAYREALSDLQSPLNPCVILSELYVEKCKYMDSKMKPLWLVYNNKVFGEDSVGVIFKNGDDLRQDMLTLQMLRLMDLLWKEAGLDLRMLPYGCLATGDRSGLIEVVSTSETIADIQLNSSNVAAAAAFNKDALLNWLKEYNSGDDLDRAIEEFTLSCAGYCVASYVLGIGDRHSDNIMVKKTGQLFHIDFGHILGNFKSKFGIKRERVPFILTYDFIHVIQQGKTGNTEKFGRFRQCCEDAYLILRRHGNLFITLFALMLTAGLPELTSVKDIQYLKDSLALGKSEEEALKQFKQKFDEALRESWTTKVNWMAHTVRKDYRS
Sequence of PIK3CA (human) (P42336 whole entry, looked up): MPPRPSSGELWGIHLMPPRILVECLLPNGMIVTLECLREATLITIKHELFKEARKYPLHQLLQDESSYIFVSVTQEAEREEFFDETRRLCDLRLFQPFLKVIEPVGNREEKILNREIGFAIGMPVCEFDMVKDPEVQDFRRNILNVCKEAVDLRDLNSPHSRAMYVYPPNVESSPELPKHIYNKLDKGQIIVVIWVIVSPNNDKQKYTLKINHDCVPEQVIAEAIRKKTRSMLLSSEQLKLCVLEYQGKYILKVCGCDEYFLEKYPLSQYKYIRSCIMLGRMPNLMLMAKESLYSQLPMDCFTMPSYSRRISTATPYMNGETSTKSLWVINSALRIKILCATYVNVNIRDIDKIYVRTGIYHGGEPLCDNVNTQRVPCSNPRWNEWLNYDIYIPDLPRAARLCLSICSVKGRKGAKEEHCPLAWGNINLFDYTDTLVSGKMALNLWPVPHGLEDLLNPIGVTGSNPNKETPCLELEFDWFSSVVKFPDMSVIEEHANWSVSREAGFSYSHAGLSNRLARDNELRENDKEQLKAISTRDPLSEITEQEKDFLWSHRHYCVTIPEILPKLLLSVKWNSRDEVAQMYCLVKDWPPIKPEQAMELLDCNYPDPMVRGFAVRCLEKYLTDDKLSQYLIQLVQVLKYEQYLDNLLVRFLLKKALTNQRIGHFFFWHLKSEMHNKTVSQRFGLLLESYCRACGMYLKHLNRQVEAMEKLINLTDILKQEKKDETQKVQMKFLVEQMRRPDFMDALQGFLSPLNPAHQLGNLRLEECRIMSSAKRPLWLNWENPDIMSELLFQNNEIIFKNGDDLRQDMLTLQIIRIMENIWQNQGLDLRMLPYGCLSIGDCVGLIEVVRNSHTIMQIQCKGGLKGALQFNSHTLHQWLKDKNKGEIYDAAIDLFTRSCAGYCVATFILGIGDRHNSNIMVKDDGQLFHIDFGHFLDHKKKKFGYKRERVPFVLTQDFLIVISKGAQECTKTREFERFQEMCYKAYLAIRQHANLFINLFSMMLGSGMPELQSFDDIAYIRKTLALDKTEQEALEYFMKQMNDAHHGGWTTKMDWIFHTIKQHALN
Sequence of PIK3CA (human), P42336 [H1047R] (P42336 whole entry H1047R, looked up): as the sequence (P42336 whole entry, looked up) above, with H1047R counted along it
Sequence of PIK3CG (human) (P48736 whole entry, looked up): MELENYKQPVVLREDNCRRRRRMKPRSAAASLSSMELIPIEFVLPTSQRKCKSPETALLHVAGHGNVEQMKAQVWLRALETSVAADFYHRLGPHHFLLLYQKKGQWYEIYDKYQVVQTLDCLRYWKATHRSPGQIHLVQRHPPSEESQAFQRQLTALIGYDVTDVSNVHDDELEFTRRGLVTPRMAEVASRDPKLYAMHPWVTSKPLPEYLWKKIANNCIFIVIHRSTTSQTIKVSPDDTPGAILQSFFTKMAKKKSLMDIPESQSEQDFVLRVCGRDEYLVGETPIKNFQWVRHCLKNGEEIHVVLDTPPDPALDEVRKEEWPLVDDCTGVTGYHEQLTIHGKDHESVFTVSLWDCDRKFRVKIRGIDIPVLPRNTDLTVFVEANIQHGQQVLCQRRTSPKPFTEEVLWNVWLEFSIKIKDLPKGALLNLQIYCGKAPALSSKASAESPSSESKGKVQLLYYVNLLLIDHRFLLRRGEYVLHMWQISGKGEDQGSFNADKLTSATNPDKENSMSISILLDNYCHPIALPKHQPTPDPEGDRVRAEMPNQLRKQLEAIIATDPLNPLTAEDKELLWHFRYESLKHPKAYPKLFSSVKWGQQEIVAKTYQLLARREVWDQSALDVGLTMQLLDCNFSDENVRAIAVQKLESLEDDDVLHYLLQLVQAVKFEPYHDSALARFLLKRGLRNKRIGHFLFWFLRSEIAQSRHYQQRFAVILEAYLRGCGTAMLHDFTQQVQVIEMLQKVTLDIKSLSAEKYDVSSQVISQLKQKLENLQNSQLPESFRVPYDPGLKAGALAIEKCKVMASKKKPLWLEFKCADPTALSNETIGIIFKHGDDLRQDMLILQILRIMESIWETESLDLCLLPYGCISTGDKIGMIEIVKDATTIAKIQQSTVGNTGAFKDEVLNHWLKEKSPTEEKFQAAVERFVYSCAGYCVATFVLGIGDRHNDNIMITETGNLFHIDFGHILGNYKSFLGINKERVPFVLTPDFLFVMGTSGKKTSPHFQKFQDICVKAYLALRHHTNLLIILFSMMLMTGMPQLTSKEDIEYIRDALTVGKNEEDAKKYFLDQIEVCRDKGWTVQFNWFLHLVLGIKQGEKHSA
Sequence of PIK3CD (Human) (O00329 whole entry, looked up): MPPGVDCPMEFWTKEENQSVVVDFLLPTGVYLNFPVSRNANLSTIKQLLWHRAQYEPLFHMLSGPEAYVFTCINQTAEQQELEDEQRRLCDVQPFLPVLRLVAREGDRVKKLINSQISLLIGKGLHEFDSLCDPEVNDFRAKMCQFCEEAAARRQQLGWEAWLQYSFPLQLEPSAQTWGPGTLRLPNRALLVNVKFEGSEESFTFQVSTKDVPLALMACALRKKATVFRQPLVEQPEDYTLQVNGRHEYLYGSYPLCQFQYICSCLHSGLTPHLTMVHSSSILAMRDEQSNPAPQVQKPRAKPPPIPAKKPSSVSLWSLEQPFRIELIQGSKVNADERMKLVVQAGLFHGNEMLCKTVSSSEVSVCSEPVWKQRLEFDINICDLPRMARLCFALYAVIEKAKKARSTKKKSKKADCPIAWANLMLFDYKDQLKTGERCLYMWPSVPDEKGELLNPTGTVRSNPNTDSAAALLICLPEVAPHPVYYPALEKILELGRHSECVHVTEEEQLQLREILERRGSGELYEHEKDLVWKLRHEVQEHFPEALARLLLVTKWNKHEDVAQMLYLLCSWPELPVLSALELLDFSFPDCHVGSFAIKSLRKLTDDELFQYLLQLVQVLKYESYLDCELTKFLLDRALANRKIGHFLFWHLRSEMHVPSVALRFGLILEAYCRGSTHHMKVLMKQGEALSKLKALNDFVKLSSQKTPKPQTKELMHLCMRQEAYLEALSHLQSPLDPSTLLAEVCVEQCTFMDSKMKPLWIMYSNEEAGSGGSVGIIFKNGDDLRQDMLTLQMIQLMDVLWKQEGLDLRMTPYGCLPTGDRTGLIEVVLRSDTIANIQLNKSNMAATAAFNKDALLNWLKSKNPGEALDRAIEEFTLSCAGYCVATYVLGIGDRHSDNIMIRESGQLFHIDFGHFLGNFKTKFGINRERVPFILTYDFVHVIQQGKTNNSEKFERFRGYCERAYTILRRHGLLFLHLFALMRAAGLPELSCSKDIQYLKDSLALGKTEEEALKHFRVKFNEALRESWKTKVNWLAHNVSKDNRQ

SMILES | IC50 (PIK3CB (Human) [1]) | IC50 (PIK3CA (human) [2]) | IC50 (PIK3CD (Human) [3]) | IC50 [4] | IC50 (PIK3CB (Human) [5]) | IC50 (PIK3CA (human) [6]) | IC50 (PIK3CG (human)) | IC50 (PIK3CD (Human) [7])
Nc1cc(C(F)(F)F)c(-c2cc(N3CCC(=O)CC3)nc(N3CCOCC3)n2)cn1 | 5310 nM | 1730 nM | 6540 nM | 3300 nM | 1070 nM | 327 nM | 4460 nM | 1220 nM
Nc1ncc(-c2cc(N3CCOC(c4ccccc4)C3)nc(N3CCOCC3)n2)c(C(F)(F)F)n1 (configuration not stated) | > 10000 nM | > 10000 nM | 105 nM | 2390 nM and 1370 nM | 27 nM | 15 nM | 170 nM | 110 nM
Nc1cc(C(F)(F)F)c(-c2cc(N3CCCCC3=O)nc(N3CCOCC3)n2)cn1 | 1540 nM | 369 nM | 1040 nM | 4410 nM and 3080 nM | 237 nM | 94 nM | 3360 nM | 848 nM
COCCOc1ccc([C@@H]2OC(=O)N(c3cc(-c4cnc(N)nc4C(F)(F)F)nc(N4CCOCC4)n3)[C@H]2CO)cc1 |  |  | 4 nM |  |  |  |  | 

Further lines, results first:

IC50 (PIK3CB (Human) [1]) | IC50 (PIK3CA (human) [2]) | IC50 (PIK3CD (Human) [3]) | IC50 [4] | IC50 (PIK3CB (Human) [5]) | IC50 (PIK3CA (human) [6]) | IC50 (PIK3CG (human)) | IC50 (PIK3CD (Human) [7]) | SMILES
< 3 nM |  | < 3 nM |  |  |  |  |  | Nc1ncc(-c2cc(N3C(=O)O[C@@H](c4ccc(OCCO)cc4)[C@@H]3CO)nc(N3CCOCC3)n2)c(C(F)(F)F)n1
 |  | 139 nM |  |  |  | 315 nM | 24 nM | Nc1ncc(-c2cc(N3CCOCC3)nc(N3CCOCC3)n2)c(C(F)(F)F)n1
 |  |  |  |  |  | 7000 nM |  | CC[C@@H]1[C@@H](c2cccc(OC)c2)OC(=O)N1c1cc(-c2cnc(N)nc2C(F)(F)F)nc(N2CCOCC2)n1
1580 nM | 606 nM | 1470 nM | 4550 nM and 2810 nM | 236 nM | 91 nM | 7350 nM | 1980 nM | Nc1cc(C(F)(F)F)c(-c2cc(N3CCN(c4ccccc4)C3=O)nc(N3CCOCC3)n2)cn1
 |  |  |  | 96 nM |  | 5800 nM |  | CC[C@H]1[C@H](c2ccc(OC)cc2)OC(=O)N1c1cc(-c2cnc(N)nc2C(F)(F)F)nc(N2CCOCC2)n1
 |  |  | 440 nM and 598 nM |  |  |  |  | C[C@H]1[C@H](c2nccs2)OC(=O)N1c1cc(-c2cnc(N)nc2C(F)(F)F)nc(N2CCOCC2)n1
